{"source": "paper PMC3638264", "about": "(Journal of Medicinal Chemistry, 2013)", "key": {"[1]": {"test_system": "LNCaP-AKR1C3 cells", "assay": "inhibition of testosterone formation in LNCaP-AKR1C3 cells", "assay_type": "cell-based", "settings": "30 μM inhibitor, 0.1 μM Δ4-AD, 48 h"}, "[2]": {"target": "T1, AKR1C2 (Homo sapiens, UniProt P52895)", "T1 sequence (P52895 1-323)": "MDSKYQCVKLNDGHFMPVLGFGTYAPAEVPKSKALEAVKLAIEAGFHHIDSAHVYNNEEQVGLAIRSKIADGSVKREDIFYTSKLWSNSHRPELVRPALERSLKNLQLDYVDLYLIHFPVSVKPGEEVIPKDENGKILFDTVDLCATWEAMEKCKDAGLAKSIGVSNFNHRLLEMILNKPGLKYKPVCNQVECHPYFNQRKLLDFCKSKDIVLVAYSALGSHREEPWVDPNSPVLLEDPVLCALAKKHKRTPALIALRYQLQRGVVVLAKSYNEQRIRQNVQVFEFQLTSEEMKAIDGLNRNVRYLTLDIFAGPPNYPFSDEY", "assay": "AKR1C2 inhibition, NADP+ dependent oxidation of S-tetralol", "settings": "for IC50 Ratio 1C2/1C3: selectivity for AKR1C3 over AKR1C2"}, "[3]": {"target": "T2, AKR1C3 (Homo sapiens, UniProt P42330)", "T2 sequence (P42330 1-323)": "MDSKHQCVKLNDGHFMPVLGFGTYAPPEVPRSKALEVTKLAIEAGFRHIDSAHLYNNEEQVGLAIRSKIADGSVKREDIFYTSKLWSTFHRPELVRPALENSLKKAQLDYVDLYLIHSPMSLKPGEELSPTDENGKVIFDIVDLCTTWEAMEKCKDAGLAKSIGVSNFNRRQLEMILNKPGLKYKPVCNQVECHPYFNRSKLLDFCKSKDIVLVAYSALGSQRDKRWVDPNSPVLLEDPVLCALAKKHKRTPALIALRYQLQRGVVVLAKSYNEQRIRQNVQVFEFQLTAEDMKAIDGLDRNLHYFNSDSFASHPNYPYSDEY", "assay": "AKR1C3 inhibition, NADP+ dependent oxidation of S-tetralol", "settings": "for loss of inhibitory potency for AKR1C3: relative to indomethacin (1); for loss of AKR1C3 potency: relative to 44"}, "[4]": {"target": "T3, oCOX-1 (Ovis aries, UniProt P05979)", "T3 sequence (P05979 25-600)": "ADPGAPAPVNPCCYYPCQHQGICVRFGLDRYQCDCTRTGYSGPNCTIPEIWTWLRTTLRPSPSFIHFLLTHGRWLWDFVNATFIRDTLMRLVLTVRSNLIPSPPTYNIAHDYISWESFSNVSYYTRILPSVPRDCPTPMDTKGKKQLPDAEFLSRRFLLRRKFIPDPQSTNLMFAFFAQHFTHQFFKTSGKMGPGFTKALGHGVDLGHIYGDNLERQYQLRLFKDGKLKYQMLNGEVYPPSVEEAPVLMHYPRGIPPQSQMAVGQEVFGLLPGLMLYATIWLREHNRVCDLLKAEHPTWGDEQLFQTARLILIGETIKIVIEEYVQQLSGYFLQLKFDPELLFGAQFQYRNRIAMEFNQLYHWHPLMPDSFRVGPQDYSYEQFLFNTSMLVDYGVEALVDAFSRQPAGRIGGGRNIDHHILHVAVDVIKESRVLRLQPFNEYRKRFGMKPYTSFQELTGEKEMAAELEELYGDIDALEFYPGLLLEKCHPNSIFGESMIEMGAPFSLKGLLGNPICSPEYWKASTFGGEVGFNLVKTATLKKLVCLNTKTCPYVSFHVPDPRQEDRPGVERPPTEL", "assay": "continuous colorimetric COX-1 assay", "assay_type": "biochemical, ovine", "settings": "for inhibitory activity on COX-1 at highest concentration tested: 100 μM inhibitor"}, "[5]": {"target": "T4, mouse COX-2 (Mus musculus, UniProt Q05769)", "T4 sequence (Q05769 18-604)": "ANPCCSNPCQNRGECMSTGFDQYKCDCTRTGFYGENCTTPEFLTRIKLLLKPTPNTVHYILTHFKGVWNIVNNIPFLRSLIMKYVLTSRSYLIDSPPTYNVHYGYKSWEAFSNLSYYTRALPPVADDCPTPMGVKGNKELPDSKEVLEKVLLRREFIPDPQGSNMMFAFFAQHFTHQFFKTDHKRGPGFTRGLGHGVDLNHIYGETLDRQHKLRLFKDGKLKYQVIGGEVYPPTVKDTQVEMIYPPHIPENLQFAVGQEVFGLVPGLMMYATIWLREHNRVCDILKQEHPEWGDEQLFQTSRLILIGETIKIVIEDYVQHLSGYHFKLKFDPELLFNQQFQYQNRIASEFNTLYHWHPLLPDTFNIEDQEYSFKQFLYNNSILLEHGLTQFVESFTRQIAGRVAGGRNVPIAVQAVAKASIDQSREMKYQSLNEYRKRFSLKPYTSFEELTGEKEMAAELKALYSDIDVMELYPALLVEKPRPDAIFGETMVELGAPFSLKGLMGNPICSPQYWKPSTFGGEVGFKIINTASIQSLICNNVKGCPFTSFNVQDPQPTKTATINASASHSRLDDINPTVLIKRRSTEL", "assay": "discontinuous 14C-AA TLC-based COX assay, COX-2", "settings": "for inhibition at 25 µM: read-out: wt mCOX 2 % inhib. @ 25 μM, 25 μM inhibitor, 5 μM AA; for wt mCOX 2 plateau of inhibition (P @ %): plateau at higher inhibitor concentrations"}, "[6]": {"target": "T5, ovine COX-1 (Ovis aries, UniProt P05979)", "T5 sequence (P05979 25-600)": "T3 sequence (P05979 25-600)", "assay": "discontinuous 14C-AA TLC-based COX assay, COX-1", "settings": "for inhibition at 25 µM: read-out: oCOX 1 % inhib. @ 25 μM, 25 μM inhibitor, 5 μM AA"}}, "note": "pIC50: −log10 of the molar value.", "data": [{"compound": "COc1ccc2c(c1)c(CC(=O)O)c(C)n2C(=O)c1ccc(Cl)cc1", "note": "[Compound 1, 2-(1-(4-chlorobenzoyl)-5-methoxy-2-methyl-1H-indol-3-yl)acetic acid, reference compound]", "values": [{"measurement": "inhibition of testosterone formation", "setting": "[1]", "result": "robust inhibition"}]}, {"compound": "COc1ccc(C(=O)n2c(C)c(CC(=O)O)c3cc(OC)ccc32)cc1", "note": "[Compound 4]", "values": [{"measurement": "selectivity for AKR1C3 over AKR1C2", "setting": "[2]", "result": "over 300 fold"}]}, {"compound": "COC(=O)Cc1c(C)n(C(=O)c2ccc(Cl)cc2)c2ccc(OC)cc12", "note": "[Compound 10]", "values": [{"measurement": "loss of inhibitory potency for AKR1C3", "setting": "[3]", "result": 57, "unit": "fold"}]}, {"compound": "COC(=O)Cc1c(C)n(C(=O)c2ccc(OC)cc2)c2ccc(OC)cc12", "note": "[Compound 13]", "values": [{"measurement": "IC50 Ratio 1C2/1C3", "setting": "[2]", "result": ">12"}]}, {"compound": "COc1ccc2c(c1)c(CC(=O)NS(C)(=O)=O)c(C)n2C(=O)c1ccc(Cl)cc1", "note": "[Compound 14, 2-(1-(4-Chlorobenzoyl)-5-methoxy-2-methyl-1H-indol-3-yl)-N-(methylsulfonyl)acetamide]", "values": [{"measurement": "loss of inhibitory potency for AKR1C3", "setting": "[3]", "result": 22, "unit": "fold"}]}, {"compound": "COc1ccc2c(c1)c(CCC(=O)O)c(C)n2C(=O)c1ccc(Cl)cc1", "note": "[Compound 16, 3-(1-(4-Chlorobenzoyl)-5-methoxy-2-methyl-1H-indol-3-yl)propanoic Acid]", "values": [{"measurement": "pIC50", "setting": "[4]", "result": 4.31}]}, {"compound": "COc1ccc2c(c1)cc(C)n2C(=O)c1ccc(Cl)cc1", "note": "[Compound 19]", "values": [{"measurement": "loss of inhibitory potency for AKR1C3", "setting": "[3]", "result": 36, "unit": "fold"}]}, {"compound": "COc1ccc2c(c1)c(CC(=O)O)cn2C(=O)c1ccc(Cl)cc1", "note": "[Compound 20, 2-(1-(4-Chlorobenzoyl)-5-methoxy-1H-indol-3-yl)acetic Acid]", "values": [{"measurement": "slope factor of inhibition dose–response curve", "setting": "[3]", "result": 1}]}, {"compound": "COC(=O)Cc1cn(C(=O)c2ccc(Cl)cc2)c2ccc(OC)cc12", "note": "[Compound 21]", "values": [{"measurement": "IC50 Ratio 1C2/1C3", "setting": "[2]", "result": ">8"}]}, {"compound": "COc1ccc2c(c1)c(CC(=O)O)cn2C(=O)c1ccc(F)cc1", "note": "[Compound 22]", "values": [{"measurement": "IC50 Ratio 1C2/1C3", "setting": "[2]", "result": ">20"}]}, {"compound": "O=C(O)Cc1cn(C(=O)c2ccc(Cl)cc2)c2ccc(F)cc12", "note": "[Compound 25]", "values": [{"measurement": "increase in AKR1C2 inhibitory potency", "setting": "[2]; relative to des-methyl-indomethacin (20)", "result": 4, "unit": "fold"}]}, {"compound": "COc1ccc2c(c1)c(CC(=O)NS(=O)(=O)C(F)(F)F)cn2C(=O)c1ccc(Cl)cc1", "note": "[Compound 27, 2-(1-(4-Chlorobenzoyl)-5-methoxy-1H-indol-3-yl)-N-((trifluoromethyl)sulfonyl)acetamide]", "values": [{"measurement": "pIC50", "setting": "[4]", "result": 5.66}]}, {"compound": "CCC(=O)Cc1cn(C(=O)OC)c2ccc(OC)cc12", "note": "[Compound 43]", "values": [{"measurement": "IC50 Ratio 1C2/1C3", "setting": "[2]", "result": ">4"}]}, {"compound": "COc1ccc2c(c1)c(C)c(CCC(=O)O)n2C(=O)c1ccc(Cl)cc1", "note": "[Compound 44, 3-(1-(4-Chlorobenzoyl)-5-methoxy-3-methyl-1H-indol-2-yl)propanoic Acid]", "values": [{"measurement": "pIC50", "setting": "[4]", "result": "< 4.00"}, {"measurement": "inhibitory activity on COX-1 at highest concentration tested", "setting": "[4]", "result": "did not display significant inhibitory activity"}, {"measurement": "inhibition of testosterone formation", "setting": "[1]", "result": "robust inhibition"}, {"measurement": "inhibition at 4 µM", "setting": "[5]; read-out: wt mCOX 2 % inhib. @ 4 μM, 4 μM inhibitor, 5 μM AA", "result": "< 18", "unit": "%"}, {"measurement": "inhibition at 25 µM", "setting": "[5]", "result": "≤ 34", "unit": "%"}]}, {"compound": "CCc1c(CCC(=O)O)n(C(=O)c2ccc(Cl)cc2)c2ccc(OC)cc12", "note": "[Compound 47, 3-(1-(4-Chlorobenzoyl)-3-ethyl-5-methoxy-1H-indol-2-yl)propanoic Acid]", "values": [{"measurement": "inhibition at 25 µM", "setting": "[5]", "result": "≤ 34", "unit": "%"}]}, {"compound": "COc1ccc2c(c1)c(C)c(CC(C)(C)C(=O)O)n2C(=O)c1ccc(Cl)cc1", "note": "[Compound 48, 3-(1-(4-Chlorobenzoyl)-5-methoxy-3-methyl-1H-indol-2-yl)-2,2-dimethylpropanoic Acid]", "values": [{"measurement": "inhibition at 25 µM", "setting": "[6]", "result": "≤ 34", "unit": "%"}, {"measurement": "inhibition at 25 µM", "setting": "[5]", "result": "≤ 34", "unit": "%"}]}, {"compound": "COc1ccc2c(c1)c(C)c(CC(C)C(=O)O)n2C(=O)c1ccc(Cl)cc1", "note": "(stereo not drawn) [Compound 49, 3-(1-(4-Chlorobenzoyl)-5-methoxy-3-methyl-1H-indol-2-yl)-2-methylpropanoic Acid]", "values": [{"measurement": "loss of AKR1C3 potency", "setting": "[3]", "result": 2, "unit": "fold"}]}, {"compound": "COc1ccc2c(c1)c(C)c(CCC(=O)NS(C)(=O)=O)n2C(=O)c1ccc(Cl)cc1", "note": "[Compound 50, 3-(1-(4-Chlorobenzoyl)-5-methoxy-3-methyl-1H-indol-2-yl)-N-(methylsulfonyl)propanamide]", "values": [{"measurement": "pIC50", "setting": "[4]", "result": "< 4.00"}, {"measurement": "inhibitory activity on COX-1 at highest concentration tested", "setting": "[4]", "result": "did not display significant inhibitory activity"}, {"measurement": "inhibition of testosterone formation", "setting": "[1]", "result": "robust inhibition"}, {"measurement": "inhibition at 25 µM", "setting": "[6]", "result": "≤ 34", "unit": "%"}, {"measurement": "inhibition at 25 µM", "setting": "[5]", "result": "≤ 34", "unit": "%"}, {"measurement": "loss of AKR1C3 potency", "setting": "[3]", "result": 3, "unit": "fold"}]}, {"compound": "COc1ccc2c(c1)c1c(n2C(=O)c2ccc(Cl)cc2)CCC(C(=O)O)C1", "note": "(stereo not drawn) [Compound 61, 9-(4-Chlorobenzoyl)-6-methoxy-2,3,4,9-tetrahydro-1H-carbazole-3-carboxylic Acid]", "values": [{"measurement": "pIC50", "setting": "[4]", "result": 6.12}, {"measurement": "wt mCOX 2 plateau of inhibition (P @ %)", "setting": "[5]", "result": 61.4, "unit": "%"}]}, {"compound": "COc1ccc2c(c1)c1c(n2C(=O)c2ccc(Cl)cc2)CCC(C(=O)NS(C)(=O)=O)C1", "note": "(stereo not drawn) [Compound 63, 9-(4-Chlorobenzoyl)-6-methoxy-N-(methylsulfonyl)-2,3,4,9-tetrahydro-1H-carbazole-3-carboxamide]", "values": [{"measurement": "selectivity for AKR1C3 over AKR1C2", "setting": "[2]", "result": 20, "unit": "fold"}, {"measurement": "IC50 Ratio 1C2/1C3", "setting": "[2]", "result": "> 20"}]}, {"compound": "COc1ccc2c(c1)c1c(n2C(=O)c2ccc(Cl)cc2)CC(C(=O)O)CC1", "note": "(stereo not drawn) [Compound 64, 9-(4-Chlorobenzoyl)-6-methoxy-2,3,4,9-tetrahydro-1H-carbazole-2-carboxylic Acid]", "values": [{"measurement": "pIC50", "setting": "[6]", "result": 5.62}, {"measurement": "oCOX 1 plateau of inhibition (P @ %)", "setting": "[6]; plateau at higher inhibitor concentrations", "result": 56.1, "unit": "%"}, {"measurement": "pIC50", "setting": "[5]", "result": 5.83}, {"measurement": "wt mCOX 2 plateau of inhibition (P @ %)", "setting": "[5]", "result": 62.6, "unit": "%"}]}]}
